For 24 molecules, IC50 and inhibition results are on record in patent publication US20240391948A1, “NOVEL COMPOUND THAT INHIBITS TNF-ALPHA GENERATION AND INFLAMMASOME ACTIVITY AND PREPARATION METHOD THEREFOR” (SHAPERON INC., priority 2021, published 2024).

Common to all, as to format: cell-based
Experiment [1] deals with U937 cells (human monocytic cell line). The experiment is described as follows: BzATP-induced IL-1β secretion inhibition in PMA-differentiated U937 cells. The settings on record: U-937, U937 cells differentiated with PMA, read-out: IL-1β production inhibition grade (IC50). As for the experimental part:
(§1) To evaluate anti-inflammatory efficacy, U937 cells (human monocytic cell line) were differentiated into macrophages using PMA (phorbol 12-myristate 13-acetate) and then induced an inflammatory response with Pam2CSK4 (Pam2CysSerLys4) or BzATP (2′(3′)—O-(4-Benzoylbenzoyl)adenosine 5′-triphosphate), the efficacy of taurine-bile acid derivatives in suppressing inflammatory cytokine (IL-1β, TNF-α) production was measured.
(§2) Using PMA, U937 cells were differentiated into macrophages, and the extent of TNF-α secretion inhibition was measured in an experimental group where taurine-bile acid derivatives was treated, followed by induction of inflammatory response with Pam2CSK4, and in the experimental group in which an inflammatory response was induced with BzATP, the extent to which IL-1β secretion among cytokines was suppressed was measured.
(§3) The ability of taurine-bile acid derivatives to inhibit cytokine production was expressed in terms of IC50 (μM) values. The standards for TNF α inhibition ability are A: less than 0.5, B: 0.5 to less than 1.0, C: 1.0 to less than 2.0, D: 2.0 or more, and the IL-1β inhibition ability grade standards are A: less than 0.05, B: 0.05 to less than 0.10, C: 0.10 or more and less than 0.20, D: 0.20 or more.

Experiment [2] concerns J774A.1 (Mouse BALB/c monocyte macrophage cell line) cells. The experiment is described as follows: LPS+ATP-induced IL-1β secretion inhibition in J774A.1 cells. The conditions noted are these: J774.A1, 1 μM compound, graded compared to taurodeoxycholic acid (positive control), read-out: IL-1β production inhibition grade. As for the experimental part: (§4) To evaluate anti-inflammatory efficacy, an inflammatory response was induced in J774A.1 (Mouse BALB/c monocyte macrophage cell line) cells derived from mouse macrophages by LPS (lipopolysaccharide) and LPS+ATP (adenosine triphosphate), and the efficacy of taurine-bile acid derivatives to inhibit the production of inflammatory cytokines (IL-1β, TNF-α) was measured. After treating J774A.1 cells with 1 μM of a taurine-bile acid derivative, the degree to which the secretion of TNF-α among cytokines was suppressed was measured in the experimental group in which an inflammatory response was induced by LPS, and the extent to which IL-1β secretion among cytokines was suppressed was measured in the experimental group in which an inflammatory response was induced with LPS+ATP. The ability of taurine-bile acid derivatives to inhibit cytokine production was graded compared to taurodeoxycholic acid, a positive control. The grading criteria are A: over 100%, B: over 50% and under 100%, C: between 20% and under 50%, and D: under 20%.

The test system is the same in experiment [3]. As to the kind of experiment: LPS-induced TNF-α secretion inhibition in J774A.1 cells. The conditions noted are these: J774.A1, 1 μM compound, graded compared to taurodeoxycholic acid (positive control), read-out: TNF-α production inhibition grade. As for the experimental part:
as §4

Experiment [4] relates to U937 cells (human monocytic cell line). As to the kind of experiment: Pam2CSK4-induced TNF-α secretion inhibition in PMA-differentiated U937 cells. The settings on record: U-937, U937 cells differentiated with PMA, read-out: TNF-α production inhibition grade (IC50). As for the experimental part:
as §1, §2, §3

Usually IC50 stands for the concentration that inhibits the measured activity by half. By inhibition is commonly meant the drop in the measured response relative to a control, in per cent. As for `C[C@H](CCC(=O)N(CCS(=O)(=O)O)C1CCCCC1)[C@H]1CC[C@H]2[C@@H]3CC[C@@H]4C[C@H](O)CC[C@]4(C)[C@H]3C[C@H](O)[C@]12C` [NC10004], the IC50 in experiment [1] was at least 200 nM; in experiment [4], at least 2000 nM. The figures for the inhibition at 1 µM in experiment [2] and in experiment [3] were 50 to 100% and 20 to 50%, respectively.

As to `C[C@H](CCC(=O)N1CCC[C@@H]1CS(=O)(=O)O)[C@H]1CC[C@H]2[C@@H]3CC[C@@H]4C[C@H](O)CC[C@]4(C)[C@H]3C[C@H](O)[C@]12C` [NC10036], the values for the IC50 in experiment [1] and in experiment [4] were 100 to 200 nM and at least 2000 nM, respectively. The inhibition at 1 µM in experiment [2] was above 100%; in experiment [3], below 20%.

As to `CC[C@H]1[C@@H](O)[C@@H]2[C@H](C[C@H](O)[C@]3(C)[C@@H]([C@H](C)CCC(=O)N[C@H](Cc4ccccc4)CS(=O)(=O)O)CC[C@@H]23)[C@@]2(C)CC[C@@H](O)C[C@@H]12` [NC50015], the IC50 in experiment [1] lay within 50 to 100 nM; in experiment [4], 1000 to 2000 nM. Moreover, the inhibition at 1 µM was above 100% in experiment [2] and below 20% in experiment [3].

Consider `C[C@H](CCC(=O)N(CCS(=O)(=O)O)CC(N)=O)[C@H]1CC[C@H]2[C@@H]3CC[C@@H]4C[C@H](O)CC[C@]4(C)[C@H]3C[C@H](O)[C@]12C` [NC10005], for which the IC50 in experiment [1] is 100 to 200 nM; in experiment [4], 1000 to 2000 nM. Also, the results for the inhibition at 1 µM in experiment [2] and in experiment [3] were 20 to 50% and below 20%, respectively.

As to `C[C@H](CCC(=O)N(CCO)CCS(=O)(=O)O)[C@H]1CC[C@H]2[C@@H]3CC[C@@H]4CC(=O)CC[C@]4(C)[C@H]3CC[C@]12C` [NC30006], the IC50 in experiment [1] was at least 200 nM; in experiment [4], 500 to 1000 nM. The inhibition at 1 µM in experiment [2] and in experiment [3] was below 20% throughout.

Turning to `CC[C@H]1[C@@H](O)[C@@H]2[C@H](C[C@H](O)[C@]3(C)[C@@H]([C@H](C)CCC(=O)N[C@@H](CO)CS(=O)(=O)O)CC[C@@H]23)[C@@]2(C)CC[C@@H](O)C[C@@H]12` [NC50024], the IC50 in experiment [1] was at least 200 nM; in experiment [4], at least 2000 nM. The values for the inhibition at 1 µM in experiment [2] and in experiment [3] were 20 to 50% and below 20%, respectively.

As for `C[C@H](CCC(=O)N1CCC(S(=O)(=O)O)CC1)[C@H]1CC[C@H]2[C@@H]3CC[C@@H]4C[C@H](O)CC[C@]4(C)[C@H]3C[C@H](O)[C@]12C` [NC10011], the IC50 is below 50 nM in experiment [1] and below 500 nM in experiment [4]. For the same molecule, the inhibition at 1 µM in experiment [2] and in experiment [3] was above 100% each time.

For `C[C@H](CCC(=O)N(CCS(=O)(=O)O)C1CCOCC1)[C@H]1CC[C@H]2[C@@H]3[C@H](O)C[C@@H]4C[C@H](O)CC[C@]4(C)[C@H]3C[C@H](O)[C@]12C` [NC20008], the IC50 is 50 to 100 nM in experiment [1] and 500 to 1000 nM in experiment [4]. In addition, the inhibition at 1 µM is above 100% in experiment [2] and below 20% in experiment [3].

`C[C@H](CCC(=O)N1CCC(S(=O)(=O)O)CC1)[C@H]1CC[C@H]2[C@@H]3[C@H](O)C[C@@H]4C[C@H](O)CC[C@]4(C)[C@H]3C[C@H](O)[C@]12C` [NC20011]: the figures for the IC50 in experiment [1] and in experiment [4] were 50 to 100 nM and at least 2000 nM, respectively. Moreover, the inhibition at 1 µM was 50 to 100% in experiment [2] and below 20% in experiment [3].

For `CC[C@H]1[C@@H](O)[C@@H]2[C@H](C[C@H](O)[C@]3(C)[C@@H]([C@H](C)CCC(=O)N[C@H]4CCCC[C@H]4S(=O)(=O)O)CC[C@@H]23)[C@@]2(C)CC[C@@H](O)C[C@@H]12` [NC50027], the IC50 in experiment [1] was at least 200 nM; in experiment [4] it was 1000 to 2000 nM. For the same molecule, the inhibition at 1 µM in experiment [2] was 20 to 50%; in experiment [3] it was below 20%.

With `C[C@H](CCC(=O)N[C@@H](C)CS(=O)(=O)O)[C@H]1CC[C@H]2[C@@H]3[C@H](O)C[C@@H]4C[C@H](O)CC[C@]4(C)[C@H]3C[C@H](O)[C@]12C` [NC20028], the IC50 in experiment [1] was at least 200 nM; in experiment [4] it was 1000 to 2000 nM. Also, the inhibition at 1 µM in experiment [2] and in experiment [3] was below 20% in each case.

As to `C[C@H](CCC(=O)N(CCS(=O)(=O)O)Cc1ccccc1)[C@H]1CC[C@H]2[C@@H]3[C@H](O)C[C@@H]4C[C@H](O)CC[C@]4(C)[C@H]3C[C@H](O)[C@]12C` [NC20005], the results for the IC50 in experiment [1] and in experiment [4] were 50 to 100 nM and 500 to 1000 nM, respectively. In addition, the figures for the inhibition at 1 µM in experiment [2] and in experiment [3] were above 100% and below 20%, respectively.

As to `C[C@H](CCC(=O)N1CC(S(=O)(=O)O)C1)[C@H]1CC[C@H]2[C@@H]3CC[C@@H]4C[C@H](O)CC[C@]4(C)[C@H]3C[C@H](O)[C@]12C` [NC10028], the IC50 in experiment [1] was 50 to 100 nM; in experiment [4], at least 2000 nM. Also, the inhibition at 1 µM in experiment [2] is above 100%; in experiment [3], below 20%.

Consider `CC(C)[C@H](CS(=O)(=O)O)NC(=O)CC[C@@H](C)[C@H]1CC[C@H]2[C@@H]3CC[C@@H]4C[C@H](O)CC[C@]4(C)[C@H]3C[C@H](O)[C@]12C` [NC10033], for which the IC50 in experiment [1] lay within 100 to 200 nM; in experiment [4] it was 500 to 1000 nM. The inhibition at 1 µM was 50 to 100% in experiment [2] and below 20% in experiment [3].

With `C[C@H](CCC(=O)NCCCO)[C@H]1CC[C@H]2[C@@H]3[C@H](O)C[C@@H]4C[C@H](O)CC[C@]4(C)[C@H]3C[C@H](O)[C@]12C` [NC20003], the IC50 in experiment [1] was in the range of 50 to 100 nM. Moreover, the inhibition at 1 µM was 20 to 50% in experiment [2] and 50 to 100% in experiment [3].

Take `CC[C@H]1[C@@H](O)[C@@H]2[C@H](C[C@H](O)[C@]3(C)[C@@H]([C@H](C)CCC(=O)N4CCC[C@H](S(=O)(=O)O)C4)CC[C@@H]23)[C@@]2(C)CC[C@@H](O)C[C@@H]12` [NC50009]: the IC50 in experiment [1] lay within 100 to 200 nM; in experiment [4], 1000 to 2000 nM.

With `CC[C@H]1[C@@H](O)[C@@H]2[C@H](CC[C@]3(C)[C@@H]([C@H](C)CCC(=O)N(CCS(=O)(=O)O)Cc4ccccc4)CC[C@@H]23)[C@@]2(C)CC[C@@H](O)C[C@@H]12` [NC40005], the figures for the half-maximal inhibitory concentration (IC50) in experiment [1] and in experiment [4] were at least 200 nM and at least 2000 nM, respectively.

Consider `C[C@H](CCC(=O)N(CCS(=O)(=O)O)c1ccccc1)[C@H]1CC[C@H]2[C@@H]3CC[C@@H]4C[C@H](O)CC[C@]4(C)[C@H]3CC[C@]12C` [NC10093], for which the IC50 in experiment [1] was 100 to 200 nM; in experiment [4], at least 2000 nM.

With `C[C@H](CCC(=O)NCCCO)[C@H]1CC[C@H]2[C@@H]3CC[C@@H]4C[C@H](O)CC[C@]4(C)[C@H]3C[C@H](O)[C@]12C` [NC10021], the values for the IC50 in experiment [1] and in experiment [4] were 50 to 100 nM and 1000 to 2000 nM, respectively.

`C[C@H](CCC(=O)N[C@@H]1CCCC[C@@H]1S(=O)(=O)O)[C@H]1CC[C@H]2[C@@H]3CC[C@@H]4CC(=O)CC[C@]4(C)[C@H]3CC[C@]12C` [NC30026]: the IC50 was at least 200 nM in experiment [1] and below 500 nM in experiment [4].

Regarding `C[C@H](CCC(=O)N[C@@H](CO)CS(=O)(=O)O)[C@H]1CC[C@H]2[C@@H]3CC[C@@H]4CC(=O)CC[C@]4(C)[C@H]3CC[C@]12C` [NC30024], the IC50 was at least 200 nM in experiment [1] and 1000 to 2000 nM in experiment [4].

On to `C[C@H](CCC(=O)N[C@H](CS(=O)(=O)O)c1ccccc1)[C@H]1CC[C@H]2[C@@H]3CC[C@@H]4C[C@H](O)CC[C@]4(C)[C@H]3C[C@H](O)[C@]12C` [NC10034], for which the IC50 was 50 to 100 nM in experiment [1] and 500 to 1000 nM in experiment [4].

As to `CC[C@H]1[C@@H](O)[C@@H]2[C@H](CC[C@]3(C)[C@@H]([C@H](C)CCC(=O)N[C@H](CS(=O)(=O)O)C(C)C)CC[C@@H]23)[C@@]2(C)CC[C@@H](O)C[C@@H]12` [NC40016], the IC50 in experiment [1] was at least 200 nM; in experiment [4] it was 500 to 1000 nM.

As for `C[C@H](CCC(=O)N(CCS(=O)(=O)O)C1CCOCC1)[C@H]1CC[C@H]2[C@@H]3CC[C@@H]4C[C@H](O)CC[C@]4(C)[C@H]3C[C@H](O)[C@]12C` [NC10025], the half-maximal inhibitory concentration (IC50) in experiment [1] fell in the range of 50 to 100 nM; in experiment [4] it was 1000 to 2000 nM.
